Test results from patent US12448388B2, “PRMT5 inhibitors and uses thereof” (Gilead Sciences, Inc., priority 2023, dated 2025).
Where two headings read alike, the source gives them in different places.

Test system: HCT116 MTAP-deleted cell lines
Experiment: Cell viability assay (CellTiter-Glo, 7 days), HCT116 MTAP-deleted
Format: cell-based
Details: Homo sapiens, HCT-116, HCT116 MTAP-deleted, class symbols, read-out: CC50
Procedure, shortened: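 Dose-response, PRMT5 inhibitors from DMSO serial dilution, pre-spotted; cells seeded onto compound plates. 7 d, 37 °C/5% CO2/90% RH. Readout: CTG luminescence → CC50.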

Row | SMILES | CC50 (cell viability) [nM] | CC50 (cell viability assay) [nM]
1 | Nc1nc2cc(F)c(C(=O)N3CCO[C@@H]4Cc5cc(Br)c(F)cc5[C@@H]43)cc2n2cncc12 [Ff-160, (4-amino-7-fluoroimidazo[1,5-a]quinoxalin-8-yl)((4aS,9aR)-7-bromo-6-fluoro-2,3,9,9a-tetrahydroindeno[2,1-b][1,4]oxazin-4(4aH)-yl)methanone] | < 100 | 
2 | Cc1ncc2c(N)nc3cnc(C(=O)N4C(C)CCC5Oc6cc(C(F)(F)F)ccc6C54)cc3n12 (racemic) [Ff-586, Rac-(4-amino-1-methylimidazo[1,5-a]pyrido[3,4-e]pyrazin-8-yl)(2-methyl-7-(trifluoromethyl)-3,4,4a,9b-tetrahydrobenzofuro[3,2-b]pyridin-1(2H)-yl)methanone] |  | < 100
3 | CN(C(=O)c1cc2c(cc1F)nc(N)c1cncn12)[C@H]1c2ccc(C(F)(F)F)cc2[C@H]2C[C@H]21 [Ff-255, 4-amino-7-fluoro-N-methyl-N-((1aS,6R,6aR)-3-(trifluoromethyl)-1,1a,6,6a-tetrahydrocyclopropa[a]inden-6-yl)imidazo[1,5-a]quinoxaline-8-carboxamide] | 100 to 1000 | 
4 | CC(C)N(Cc1ccc(-c2cccc(OC(F)F)c2)cc1F)C(=O)c1cc2c(cc1F)nc(N)c1cncn12 [Ff-592, 4-amino-N-((3′-(difluoromethoxy)-3-fluoro-[1,1′-biphenyl]-4-yl)methyl)-7-fluoro-N-isopropylimidazo[1,5-a]quinoxaline-8-carboxamide] |  | < 100
5 | Cc1ncn2c1c(N)nc1cc(F)c(C(=O)N3CCC[C@@H]4Oc5cc(F)ccc5[C@@H]43)cc12 [Fg-26, (4-amino-7-fluoro-3-methylimidazo[1,5-a]quinoxalin-8-yl)((4aS,9bS)-7-fluoro-3,4,4a,9b-tetrahydrobenzofuro[3,2-b]pyridin-1(2H)-yl)methanone] |  | < 100
6 | CN(C(=O)c1ccc2nc(N)c3cncn3c2c1)[C@@H]1COc2cc(C#CC3(C)COC3)ccc21 [Ff-518, (S)-4-amino-N-methyl-N-(6-((3-methyloxetan-3-yl)ethynyl)-2,3-dihydrobenzofuran-3-yl)imidazo[1,5-a]quinoxaline-8-carboxamide] |  | < 100
7 | Nc1nc2cc(F)c(C(=O)N(Cc3ccc4ncsc4c3)C34CC(C3)C4)cc2n2cncc12 [Ff-52, 4-amino-N-(benzo[d]thiazol-6-ylmethyl)-N-(bicyclo[1.1.1]pentan-1-yl)-7-fluoroimidazo[1,5-a]quinoxaline-8-carboxamide] | 100 to 1000 | 
8 | Nc1nc2cc(F)c(C(=O)N(Cc3ccc(C(F)(F)F)cn3)c3cnn(C(F)F)c3)cc2n2cncc12 [Ff-311, 4-amino-N-(1-(difluoromethyl)-1H-pyrazol-4-yl)-7-fluoro-N-((5-(trifluoromethyl)pyridin-2-yl)methyl)imidazo[1,5-a]quinoxaline-8-carboxamide] | < 100 | 
9 | Nc1nc2cc(F)c(C(=O)N3CC4CC4(c4ccc(C(F)(F)F)cc4)C3)cc2n2cncc12 (stereo not shown) [Ff-3, (4-amino-7-fluoroimidazo[1,5-a]quinoxalin-8-yl)(1-(4-(trifluoromethyl)phenyl)-3-azabicyclo[3.1.0]hexan-3-yl)methanone] | > 1000 | 
10 | Nc1nc2cc(F)c(C(=O)N3CCO[C@H]4Cc5cc(C(F)(F)F)ccc5[C@H]43)cc2n2cncc12 (single isomer, unassigned) [Ff-83] | 100 to 1000 | 
11 | Cn1ccc(N(Cc2ccc(C(F)(F)F)cc2F)C(=O)c2cc3c(cc2F)nc(N)c2cncn23)n1 [Ff-286, 4-amino-7-fluoro-N-(2-fluoro-4-(trifluoromethyl)benzyl)-N-(1-methyl-1H-pyrazol-3-yl)imidazo[1,5-a]quinoxaline-8-carboxamide] | < 100 | 
12 | Cc1ncc2c(N)nc3cc(F)c(C(=O)N4CCOC[C@@H]4c4ccc(C(F)(F)F)cc4)cc3n12 [Ff-92, (S)-(4-amino-7-fluoro-1-methylimidazo[1,5-a]quinoxalin-8-yl)(3-(4-(trifluoromethyl)phenyl)morpholino)methanone] | < 100 | 
13 | C[C@@H]1CC[C@@H]2Oc3cc(C(F)(F)F)ccc3[C@@H]2N1C(=O)c1cc2c(cc1F)nc(N)c1cncn12 (racemic) [Ff-100, Rac-(4-amino-7-fluoroimidazo[1,5-a]quinoxalin-8-yl)((2R,4aS,9bS)-2-methyl-7-(trifluoromethyl)-3,4,4a,9b-tetrahydrobenzofuro[3,2-b]pyridin-1(2H)-yl)methanone] | < 100 | 
14 | CC(C)N(Cc1ccc(-c2ccc[nH]c2=O)cc1F)C(=O)c1cc2c(cc1F)nc(N)c1cncn12 [Ff-594, 4-amino-7-fluoro-N-(2-fluoro-4-(2-oxo-1,2-dihydropyridin-3-yl)benzyl)-N-isopropylimidazo[1,5-a]quinoxaline-8-carboxamide] |  | 100 to 1000
15 | Cc1ncc2c(N)nc3cnc(C(=O)N4CCO[C@@H]5Cc6cc(OC(F)(F)F)c(F)cc6[C@@H]54)cc3n12 [Ff-179, (4-amino-1-methylimidazo[1,5-a]pyrido[3,4-e]pyrazin-8-yl)((4aS,9aR)-6-fluoro-7-(trifluoromethoxy)-2,3,9,9a-tetrahydroindeno[2,1-b][1,4]oxazin-4(4aH)-yl)methanone] | < 100 | 
16 | CN(C(=O)c1cc2c(cc1F)nc(N)c1cncn12)[C@@H]1COc2cc([C@@H]3C[C@H]3c3ccccc3)ccc21 (racemic) [Ff-473, Trans-4-amino-7-fluoro-N-methyl-N-((3S)-6-(2-phenylcyclopropyl)-2,3-dihydrobenzofuran-3-yl)imidazo[1,5-a]quinoxaline-8-carboxamide] |  | < 100
17 | CN(C(=O)c1cc2c(cc1F)nc(N)c1cncn12)[C@@H]1COc2cc(S(F)(F)(F)(F)F)ccc21 [Ff-652, (S)-4-amino-7-fluoro-N-methyl-N-(6-(pentafluoro-16-sulfaneyl)-2,3-dihydrobenzofuran-3-yl)imidazo[1,5-a]quinoxaline-8-carboxamide] |  | < 100
18 | Nc1nc2cc(F)c(C(=O)N3CCC[C@@H]4Cc5nc(C(F)(F)F)ccc5[C@@H]43)cc2n2cncc12 (racemic) [Ff-314, Rac-(4-amino-7-fluoroimidazo[1,5-a]quinoxalin-8-yl)((4bR,8aR)-2-(trifluoromethyl)-4b,6,7,8,8a,9-hexahydro-5H-cyclopenta[1,2-b:3,4-b′]dipyridin-5-yl)methanone] | < 100 | 
19 | Nc1nc2cc(F)c(C(=O)N3CCC4(CC4)[C@@H]4Oc5cc(C(F)(F)F)ccc5[C@@H]43)cc2n2cncc12 [Ff-676, (4-amino-7-fluoroimidazo[1,5-a]quinoxalin-8-yl)((4aS,9bS)-7-(trifluoromethyl)-2,3,4a,9b-tetrahydro-1H-spiro[benzofuro[3,2-b]pyridine-4,1′-cyclopropan]-1-yl)methanone] |  | < 100
20 | CN(C(=O)c1cc2c(cc1F)nc(N)c1c(Br)ncn12)[C@@H]1COc2cc(C(F)(F)F)ccc21 (single isomer, unassigned) [Ff-494] |  | 100 to 1000
21 | Nc1nc2cc(F)c(C(=O)N3CCC[C@@H]4OCc5cc(C6CC6)ccc5[C@@H]43)cc2n2cncc12 (racemic) [Ff-301, Rac-(4-amino-7-fluoroimidazo[1,5-a]quinoxalin-8-yl)((4aS,10bS)-8-cyclopropyl-2,3,4,4a,6,10b-hexahydro-1H-isochromeno[4,3-b]pyridin-1-yl)methanone] | < 100 | 
22 | CN(C(=O)c1cc2c(cc1F)nc(N)c1cncn12)[C@@H]1COCc2cc(C#CC3(C)COC3)ccc21 [Ff-530, (S)-4-amino-7-fluoro-N-methyl-N-(7-((3-methyloxetan-3-yl)ethynyl)isochroman-4-yl)imidazo[1,5-a]quinoxaline-8-carboxamide] |  | < 100
